These results are taken from patent US8394969B2, “Cyclic benzimidazole derivatives useful as anti-diabetic agents” (Merck Sharp & Dohme Corp., priority 2008, dated 2013).

The test has as its target recombinant human AMPK complex 1 (containing α1β1γ1) (Homo sapiens, UniProt Q13131+Q9Y478). In words: […] (in vitro AMPK activation assay). It is filed as biochemical. The following applies: recombinant human AMPK complex 1 (α1β1γ1); basal activity subtracted; read-out: % Maximum AMP Activation of human AMPK Complex 1.

Where a name gives a salt, the structure may show the parent alone. A value given as a limit tells only on which side of the number the result lay.

recombinant human AMPK complex 1 (containing α1β1γ1), sequence (Q13131 whole entry): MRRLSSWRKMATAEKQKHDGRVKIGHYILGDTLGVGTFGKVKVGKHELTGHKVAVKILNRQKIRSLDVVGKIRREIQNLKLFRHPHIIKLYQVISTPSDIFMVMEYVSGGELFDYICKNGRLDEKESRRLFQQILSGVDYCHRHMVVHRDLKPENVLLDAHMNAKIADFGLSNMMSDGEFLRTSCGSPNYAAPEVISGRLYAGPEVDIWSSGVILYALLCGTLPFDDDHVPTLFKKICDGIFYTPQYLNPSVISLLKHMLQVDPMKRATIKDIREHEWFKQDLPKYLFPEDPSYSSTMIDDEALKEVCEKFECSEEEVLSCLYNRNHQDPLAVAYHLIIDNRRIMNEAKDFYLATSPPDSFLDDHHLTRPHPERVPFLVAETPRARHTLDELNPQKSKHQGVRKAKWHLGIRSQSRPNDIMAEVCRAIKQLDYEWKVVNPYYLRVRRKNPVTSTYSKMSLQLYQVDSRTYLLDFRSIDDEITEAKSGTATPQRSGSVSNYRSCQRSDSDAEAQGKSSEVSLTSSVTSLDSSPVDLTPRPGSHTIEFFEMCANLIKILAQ
recombinant human AMPK complex 1 (containing α1β1γ1), sequence (Q9Y478 whole entry): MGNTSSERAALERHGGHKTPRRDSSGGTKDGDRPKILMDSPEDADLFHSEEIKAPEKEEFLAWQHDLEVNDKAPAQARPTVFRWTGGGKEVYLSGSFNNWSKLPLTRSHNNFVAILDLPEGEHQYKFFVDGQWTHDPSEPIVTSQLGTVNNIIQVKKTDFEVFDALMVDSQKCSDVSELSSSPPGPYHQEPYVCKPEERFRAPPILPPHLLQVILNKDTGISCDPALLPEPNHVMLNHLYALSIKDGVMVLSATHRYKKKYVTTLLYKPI
recombinant human AMPK complex 1 (containing α1β1γ1), sequence (P54619 whole entry partner): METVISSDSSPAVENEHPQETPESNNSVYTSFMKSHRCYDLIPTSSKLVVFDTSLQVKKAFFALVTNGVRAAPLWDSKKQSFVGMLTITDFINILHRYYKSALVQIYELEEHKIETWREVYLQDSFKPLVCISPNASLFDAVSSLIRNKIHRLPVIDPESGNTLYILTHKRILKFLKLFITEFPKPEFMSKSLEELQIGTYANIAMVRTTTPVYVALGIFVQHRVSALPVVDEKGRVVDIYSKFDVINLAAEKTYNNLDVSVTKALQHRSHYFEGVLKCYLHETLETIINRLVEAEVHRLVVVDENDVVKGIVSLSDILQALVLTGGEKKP

For the compound `Cc1ccc(Oc2nc3cc(-c4ccc(N(C)C)c(C(F)(F)F)c4)c(Cl)cc3[nH]2)cc1C(=O)O` [Example 295, 2-(3-carboxy-4-methylphenoxy)-6-chloro-5-[4-(dimethylamino)-3-(trifluoromethyl)phenyl]-1H-3,1-benzimidazol-3-ium chloride], the Emax is greater than 80%.

In the case of `Cc1ccc(Oc2nc3cc(-c4ccc(N(C)C)c(F)c4)c(Cl)cc3[nH]2)cc1C(=O)O` [Example 296, 2-(3-carboxy-4-methylphenoxy)-6-chloro-5-[4-(dimethylamino)-3-fluorophenyl]-1H-3,1-benzimidazol-3-ium chloride], the Emax is greater than 80%.

Consider `Cc1ccc(Oc2nc3cc(-c4ccc(C(C)(C)N)cc4)c(Cl)cc3[nH]2)cc1C(=O)O` [Example 297, 2-{4-[2-(3-carboxy-4-methylphenoxy)-6-chloro-1H-benzimidazol-5-yl]phenyl}propan-2-aminium trifluoroacetate], for which the Emax is greater than 80%.

Regarding `CC(=O)c1ccc2cc(-c3cc4nc(Oc5ccc(C)c(C(=O)O)c5)[nH]c4cc3Cl)ccc2c1` [Example 298, 5-[5-(6-Acetyl-naphthalen-2-yl)-6-chloro-1H-benzoimidazol-2-yloxy]-2-methyl-benzoic acid], the Emax is greater than 80%.

As for `Cc1ccc(Oc2nc3cc(-c4ccc5c(c4)CN(C(C)C)C5)c(Cl)cc3[nH]2)cc1C(=O)O` [Example 299, 5-[2-(3-carboxy-4-methylphenoxy)-6-chloro-1H-benzimidazol-5-yl]-2-isopropyl-2,3-dihydro-1H-isoindolium trifluoroacetate], the Emax is greater than 80%.

With `Cc1ccc(Oc2nc3cc(-c4ccc5c(c4)CN(C)C5)c(Cl)cc3[nH]2)cc1C(=O)O` [Example 300, 5-[2-(3-carboxy-4-methylphenoxy)-6-chloro-1H-benzimidazol-5-yl]-2-methyl-2,3-dihydro-1H-isoindolium trifluoroacetate], the Emax is greater than 80%.

As to `Cc1ccc(Oc2nc3cc(-c4ccc5c(c4)CNC5)c(Cl)cc3[nH]2)cc1C(=O)O` [Example 301, 5-[2-(3-carboxy-4-methylphenoxy)-6-chloro-1H-benzimidazol-5-yl]-2,3-dihydro-1H-isoindolium trifluoroacetate], the Emax was greater than 80%.

`Cc1ccc(Oc2nc3cc(-c4cccc(-c5ccccc5)c4)c(Cl)cc3[nH]2)cc1C(=O)O` [Example 302, 5-(5-Biphenyl-3-yl-6-chloro-1H-benzoimidazol-2-yloxy)-2-methyl-benzoic acid]: the Emax is greater than 80%.

As to `Cc1ccc(Oc2nc3cc(-c4ccc(-c5ccccc5)c(C)c4)c(Cl)cc3[nH]2)cc1C(=O)O` [Example 303, 5-[6-Chloro-5-(2-methyl-biphenyl-4-yl)-1H-benzoimidazol-2-yloxy]-2-methyl-benzoic acid], the Emax was greater than 80%.

Consider `Cc1ccc(Oc2nc3cc(-c4ccc5c(c4)CC(=O)N5C)c(Cl)cc3[nH]2)cc1C(=O)O` [Example 304, 5-[6-Chloro-5-(1-methyl-2-oxo-2,3-dihydro-1H-indol-5-yl)-1H-benzoimidazol-2-yloxy]-2-methyl-benzoic acid], for which the Emax is greater than 80%.

For the compound `Cc1ccc(Oc2nc3cc(-c4ccc5c(c4)CNC5=O)c(Cl)cc3[nH]2)cc1C(=O)O` [Example 305, 5-[6-Chloro-5-(1-oxo-2,3-dihydro-1H-isoindol-5-yl)-1H-benzoimidazol-2-yloxy]-2-methyl-benzoic acid], the Emax was greater than 80%.

For the compound `CC(=O)N1CCc2cc(-c3cc4nc(Oc5ccc(C)c(C(=O)O)c5)[nH]c4cc3Cl)ccc21` [Example 306, 5-[5-(1-Acetyl-2,3-dihydro-1H-indol-5-yl)-6-chloro-1H-benzoimidazol-2-yloxy]-2-methyl-benzoic acid], the Emax was greater than 80%.

For `Cc1ccc(Oc2nc3cc(-c4ccc5c(c4)CC(=O)N5)c(Cl)cc3[nH]2)cc1C(=O)O` [Example 307, 5-[6-Chloro-5-(2-oxo-2,3-dihydro-1H-indol-5-yl)-1H-benzoimidazol-2-yloxy]-2-methyl-benzoic acid], the Emax was greater than 80%.

With `Cc1ccc(Oc2nc3cc(-c4ccc5c(c4)OC(F)(F)O5)c(Cl)cc3[nH]2)cc1C(=O)O` [Example 308, 5-[6-Chloro-5-(2,2-difluoro-benzo[1,3]dioxol-5-yl)-1H-benzoimidazol-2-yloxy]-2-methyl-benzoic acid], the Emax was greater than 80%.

As for `COc1ccc2cc(-c3cc4nc(Oc5ccc(Cl)c(C(=O)O)c5)[nH]c4cc3Cl)ccc2c1` [Example 309, 2-Chloro-5-[6-chloro-5-(6-methoxy-naphthalen-2-yl)-1H-benzoimidazol-2-yloxy]-benzoic acid], the Emax is greater than 80%.

As to `COc1ccc2cc(-c3cc4nc(Oc5cc(C)c(C)c(C(=O)O)c5)[nH]c4cc3Cl)ccc2c1` [Example 310, 5-[6-Chloro-5-(6-methoxy-naphthalen-2-yl)-1H-benzoimidazol-2-yloxy]-2,3-dimethyl-benzoic acid], the Emax is greater than 80%.

Regarding `Cc1cc(Oc2nc3cc(-c4ccc5c(ccn5C)c4)c(Cl)cc3[nH]2)cc(C(=O)O)c1C` [Example 311, 5-[6-Chloro-5-(1-methyl-1H-indol-5-yl)-1H-benzoimidazol-2-yloxy]-2,3-dimethyl-benzoic acid], the Emax was greater than 80%.

For the compound `Cc1cc(Oc2nc3cc(-c4ccc5c(c4)OCCN5C)c(Cl)cc3[nH]2)cc(C(=O)O)c1C` [Example 312, 5-[6-Chloro-5-(4-methyl-3,4-dihydro-2H-benzo[1,4]oxazin-7-yl)-1H-benzoimidazol-2-yloxy]-2,3-dimethyl-benzoic acid], the Emax is greater than 80%.

As for `Cc1cc(Oc2nc3cc(-c4ccc(-c5ccc(O)nc5)cc4)c(Cl)cc3[nH]2)cc(C(=O)O)c1C` [Example 313, 5-{6-Chloro-5-[4-(6-hydroxy-pyridin-3-yl)-phenyl]-1H-benzoimidazol-2-yloxy}-2,3-dimethyl-benzoic acid], the Emax was greater than 80%.

For the compound `COC(=O)c1cc(Oc2nc3cc(-c4ccc(-c5ccc(OC)nc5)cc4)c(Cl)cc3[nH]2)cc(C)c1C` [Example 314, 5-{6-Chloro-5-[4-(6-methoxy-pyridin-3-yl)-phenyl]-1H-benzoimidazol-2-yloxy}-2,3-dimethyl-benzoic acid methyl ester], the Emax was greater than 80%.

Consider `COc1ccc(-c2ccc(-c3cc4nc(Oc5cc(C)c(C)c(C(=O)O)c5)[nH]c4cc3Cl)cc2)cn1` [Example 315, 5-{6-Chloro-5-[4-(6-methoxy-pyridin-3-yl)-phenyl]-1H-benzoimidazol-2-yloxy}-2,3-dimethyl-benzoic acid], for which the Emax was greater than 80%.

Turning to `Cc1cc(Oc2nc3cc(-c4ccc(C(C)(C)O)cc4)c(Cl)cc3[nH]2)cc(C(=O)O)c1C` [Example 316, 5-{6-Chloro-5-[4-(1-hydroxy-1-methyl-ethyl)-phenyl]-1H-benzoimidazol-2-yloxy}-2,3-dimethyl-benzoic acid], the Emax was greater than 80%.

`CC(=O)c1ccc(-c2cc3nc(Oc4cc(C)c(C)c(C(=O)O)c4)[nH]c3cc2Cl)cc1` [Example 317, 5-[5-(4-Acetyl-phenyl)-6-chloro-1H-benzoimidazol-2-yloxy]-2,3-dimethyl-benzoic acid]: the Emax was greater than 80%.

Regarding `Cc1ccc(Oc2nc3cc(-c4ccc(N(C)C)cc4)c(Cl)cc3[nH]2)cc1C(=O)O` [Example 318, 2-(3-carboxy-4-methylphenoxy)-6-chloro-5-[4-(dimethylamino)phen-yl]-1H-benzimidazol-3-ium chloride], the Emax is greater than 80%.
